Source: the kinase profiling compilation of Christmann-Franck et al. (2016)
Values joined by “and” are separate entries in the source; they are usually repeats but may differ in a detail not shown here. Equal values may be shown once.

Legend:
Experiment in all cases: radiometric filter-binding kinase assay
MAPK9 (human) = MAPK9 (human) (UniProt P45984); conditions: compound 100.0 µM; ATP 20 µM
RPS6KA3 KD1 KD2 (human) = RPS6KA3 KD1 KD2 (human) (UniProt P51812); conditions: compound 100.0 µM; ATP 50 µM
MARK2 (human) = MARK2 (human) (UniProt Q7KZI7); conditions: compound 100.0 µM; ATP 20 µM
MAP3K5 (human) = MAP3K5 (human) (UniProt Q99683); conditions: compound 100.0 µM; ATP 50 µM
IKBKE (human) = IKBKE (human) (UniProt Q14164); conditions: compound 100.0 µM; ATP 50 µM
RPS6KA5 KD1 KD2 (human) = RPS6KA5 KD1 KD2 (human) (UniProt O75582); conditions: compound 100.0 µM; ATP 20 µM
MAP3K1 (human) = MAP3K1 (human) (UniProt Q13233); conditions: compound 100.0 µM; ATP 50 µM
SYK (human) = SYK (human) (UniProt P43405); conditions: compound 100.0 µM; ATP 20 µM
MAPK10 (human) = MAPK10 (human) (UniProt P53779); conditions: compound 100.0 µM; ATP 20 µM
TAOK1 (human) = TAOK1 (human) (UniProt Q7L7X3); conditions: compound 100.0 µM; ATP 20 µM
DYRK1A (human) = DYRK1A (human) (UniProt Q13627); conditions: compound 100.0 µM; ATP 50 µM
BRSK1 (human) = BRSK1 (human) (UniProt Q8TDC3); conditions: compound 100.0 µM; ATP 20 µM
INSR (human) = INSR (human) (UniProt P06213); conditions: compound 100.0 µM; ATP 20 µM
MAPK15 (human) = MAPK15 (human) (UniProt Q8TD08); conditions: compound 100.0 µM; ATP 5 µM
PKN2 (human) = PKN2 (human) (UniProt Q16513); conditions: compound 100.0 µM; ATP 5 µM
EPHB2 (human) = EPHB2 (human) (UniProt P29323); conditions: compound 100.0 µM; ATP 20 µM
FGFR1 (human) = FGFR1 (human) (UniProt P11362); conditions: compound 100.0 µM; ATP 20 µM
MARK3 (human) = MARK3 (human) (UniProt P27448); conditions: compound 100.0 µM; ATP 5 µM
MAP3K9 (human) = MAP3K9 (human) (UniProt P80192); conditions: compound 100.0 µM; ATP 20 µM
ZAP70 (human) = ZAP70 (human) (UniProt P43403); conditions: compound 100.0 µM; ATP 5 µM
NTRK1 (human) = NTRK1 (human) (UniProt P04629); conditions: compound 100.0 µM; ATP 20 µM
MAP2K6 (human) = MAP2K6 (human) (UniProt P52564); conditions: compound 100.0 µM; ATP 50 µM
HIPK3 (human) = HIPK3 (human) (UniProt Q9H422); conditions: compound 100.0 µM; ATP 20 µM
LCK (mouse) = conditions: compound 100.0 µM; ATP 50 µM; accession and sequence are those of the human protein
MAPK3 (human) = MAPK3 (human) (UniProt P27361); conditions: compound 100.0 µM; ATP 5 µM
INSRR (human) = INSRR (human) (UniProt P14616); conditions: compound 100.0 µM; ATP 5 µM
MAPK1 (human) = MAPK1 (human) (UniProt P28482); conditions: compound 100.0 µM; ATP 20 µM
NUAK1 (human) = NUAK1 (human) (UniProt O60285); conditions: compound 100.0 µM; ATP 20 µM
BTK (human) = BTK (human) (UniProt Q06187); conditions: compound 100.0 µM; ATP 50 µM
PRKACA (human) = PRKACA (human) (UniProt P17612); conditions: compound 100.0 µM; ATP 20 µM
HIPK2 (human) = HIPK2 (human) (UniProt Q9H2X6); conditions: compound 100.0 µM; ATP 5 µM
DAPK1 (human) = DAPK1 (human) (UniProt P53355); conditions: compound 100.0 µM; ATP 5 µM
EPHA2 (human) = EPHA2 (human) (UniProt P29317); conditions: compound 100.0 µM; ATP 50 µM
PRKCZ (human) = PRKCZ (human) (UniProt Q05513); conditions: compound 100.0 µM; ATP 5 µM
EPHB1 (human) = EPHB1 (human) (UniProt P54762); conditions: compound 100.0 µM; ATP 20 µM

NUAK1 (human), sequence (O60285 whole entry, looked up): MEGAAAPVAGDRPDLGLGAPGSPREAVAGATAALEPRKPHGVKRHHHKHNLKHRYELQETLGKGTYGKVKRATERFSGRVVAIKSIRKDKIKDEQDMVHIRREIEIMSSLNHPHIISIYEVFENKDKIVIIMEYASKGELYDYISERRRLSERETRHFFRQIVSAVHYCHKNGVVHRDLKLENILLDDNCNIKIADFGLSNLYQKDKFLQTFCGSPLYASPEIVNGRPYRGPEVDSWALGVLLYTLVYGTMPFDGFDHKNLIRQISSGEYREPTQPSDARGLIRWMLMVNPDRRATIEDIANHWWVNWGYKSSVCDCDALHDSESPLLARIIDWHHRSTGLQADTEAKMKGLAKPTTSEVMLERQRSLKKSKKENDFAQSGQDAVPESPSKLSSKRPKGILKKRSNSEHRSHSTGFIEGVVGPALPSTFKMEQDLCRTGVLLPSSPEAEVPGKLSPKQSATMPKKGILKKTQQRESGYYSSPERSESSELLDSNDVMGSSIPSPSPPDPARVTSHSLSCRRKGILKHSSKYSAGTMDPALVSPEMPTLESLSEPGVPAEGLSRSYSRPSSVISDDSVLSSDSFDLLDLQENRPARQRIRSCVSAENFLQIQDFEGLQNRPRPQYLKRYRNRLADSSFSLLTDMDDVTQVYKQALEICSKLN
MAPK1 (human), sequence (P28482 whole entry, looked up): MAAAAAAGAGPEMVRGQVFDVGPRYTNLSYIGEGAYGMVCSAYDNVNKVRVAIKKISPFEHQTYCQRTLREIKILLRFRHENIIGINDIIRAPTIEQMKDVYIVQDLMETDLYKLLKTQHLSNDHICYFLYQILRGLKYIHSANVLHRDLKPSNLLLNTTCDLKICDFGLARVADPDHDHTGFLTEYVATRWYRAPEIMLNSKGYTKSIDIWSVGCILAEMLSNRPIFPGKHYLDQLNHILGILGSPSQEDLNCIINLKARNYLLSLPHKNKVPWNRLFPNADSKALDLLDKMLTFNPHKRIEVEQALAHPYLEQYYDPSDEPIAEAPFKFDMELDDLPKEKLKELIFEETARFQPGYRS
BTK (human), sequence (Q06187 whole entry, looked up): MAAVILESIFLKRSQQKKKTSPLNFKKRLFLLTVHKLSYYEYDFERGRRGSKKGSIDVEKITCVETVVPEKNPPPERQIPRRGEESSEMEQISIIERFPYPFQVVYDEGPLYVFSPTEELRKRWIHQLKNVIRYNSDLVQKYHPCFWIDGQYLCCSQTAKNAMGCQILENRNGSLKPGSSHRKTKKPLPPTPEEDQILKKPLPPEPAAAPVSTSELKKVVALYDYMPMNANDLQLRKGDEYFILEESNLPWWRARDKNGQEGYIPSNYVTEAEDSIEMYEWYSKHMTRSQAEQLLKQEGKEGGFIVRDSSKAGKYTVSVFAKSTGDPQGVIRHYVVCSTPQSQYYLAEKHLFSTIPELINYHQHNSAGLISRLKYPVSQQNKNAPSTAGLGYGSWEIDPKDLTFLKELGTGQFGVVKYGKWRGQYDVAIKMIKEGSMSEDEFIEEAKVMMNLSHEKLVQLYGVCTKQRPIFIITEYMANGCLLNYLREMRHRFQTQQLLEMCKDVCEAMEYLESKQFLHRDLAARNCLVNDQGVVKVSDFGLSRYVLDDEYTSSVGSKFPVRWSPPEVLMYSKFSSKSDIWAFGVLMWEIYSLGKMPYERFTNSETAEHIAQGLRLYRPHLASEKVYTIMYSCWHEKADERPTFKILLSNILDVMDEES
MAPK10 (human), sequence (P53779 whole entry, looked up): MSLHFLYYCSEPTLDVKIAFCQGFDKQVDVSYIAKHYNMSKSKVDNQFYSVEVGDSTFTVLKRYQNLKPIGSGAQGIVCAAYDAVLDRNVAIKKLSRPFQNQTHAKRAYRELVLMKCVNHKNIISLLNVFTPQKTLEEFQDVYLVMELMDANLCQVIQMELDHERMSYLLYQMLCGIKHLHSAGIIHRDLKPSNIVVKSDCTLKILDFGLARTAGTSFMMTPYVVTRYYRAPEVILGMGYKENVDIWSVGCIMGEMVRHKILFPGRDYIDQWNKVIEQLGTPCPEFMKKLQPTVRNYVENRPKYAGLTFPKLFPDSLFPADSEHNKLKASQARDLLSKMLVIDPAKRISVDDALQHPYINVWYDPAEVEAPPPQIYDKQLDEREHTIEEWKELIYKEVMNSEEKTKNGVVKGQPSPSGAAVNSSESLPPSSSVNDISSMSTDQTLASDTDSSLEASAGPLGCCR
MAPK9 (human), sequence (P45984 whole entry, looked up): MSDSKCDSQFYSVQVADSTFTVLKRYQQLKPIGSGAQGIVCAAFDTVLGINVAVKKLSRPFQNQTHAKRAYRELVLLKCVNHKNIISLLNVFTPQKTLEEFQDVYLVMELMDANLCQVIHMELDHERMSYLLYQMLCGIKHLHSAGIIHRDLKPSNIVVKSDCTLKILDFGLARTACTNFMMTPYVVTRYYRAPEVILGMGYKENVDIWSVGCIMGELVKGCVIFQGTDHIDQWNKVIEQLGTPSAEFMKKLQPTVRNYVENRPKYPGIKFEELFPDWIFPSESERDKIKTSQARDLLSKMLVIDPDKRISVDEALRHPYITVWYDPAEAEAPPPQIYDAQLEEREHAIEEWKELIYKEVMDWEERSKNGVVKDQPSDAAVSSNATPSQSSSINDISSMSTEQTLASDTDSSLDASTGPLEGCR
INSR (human), sequence (P06213 whole entry, looked up): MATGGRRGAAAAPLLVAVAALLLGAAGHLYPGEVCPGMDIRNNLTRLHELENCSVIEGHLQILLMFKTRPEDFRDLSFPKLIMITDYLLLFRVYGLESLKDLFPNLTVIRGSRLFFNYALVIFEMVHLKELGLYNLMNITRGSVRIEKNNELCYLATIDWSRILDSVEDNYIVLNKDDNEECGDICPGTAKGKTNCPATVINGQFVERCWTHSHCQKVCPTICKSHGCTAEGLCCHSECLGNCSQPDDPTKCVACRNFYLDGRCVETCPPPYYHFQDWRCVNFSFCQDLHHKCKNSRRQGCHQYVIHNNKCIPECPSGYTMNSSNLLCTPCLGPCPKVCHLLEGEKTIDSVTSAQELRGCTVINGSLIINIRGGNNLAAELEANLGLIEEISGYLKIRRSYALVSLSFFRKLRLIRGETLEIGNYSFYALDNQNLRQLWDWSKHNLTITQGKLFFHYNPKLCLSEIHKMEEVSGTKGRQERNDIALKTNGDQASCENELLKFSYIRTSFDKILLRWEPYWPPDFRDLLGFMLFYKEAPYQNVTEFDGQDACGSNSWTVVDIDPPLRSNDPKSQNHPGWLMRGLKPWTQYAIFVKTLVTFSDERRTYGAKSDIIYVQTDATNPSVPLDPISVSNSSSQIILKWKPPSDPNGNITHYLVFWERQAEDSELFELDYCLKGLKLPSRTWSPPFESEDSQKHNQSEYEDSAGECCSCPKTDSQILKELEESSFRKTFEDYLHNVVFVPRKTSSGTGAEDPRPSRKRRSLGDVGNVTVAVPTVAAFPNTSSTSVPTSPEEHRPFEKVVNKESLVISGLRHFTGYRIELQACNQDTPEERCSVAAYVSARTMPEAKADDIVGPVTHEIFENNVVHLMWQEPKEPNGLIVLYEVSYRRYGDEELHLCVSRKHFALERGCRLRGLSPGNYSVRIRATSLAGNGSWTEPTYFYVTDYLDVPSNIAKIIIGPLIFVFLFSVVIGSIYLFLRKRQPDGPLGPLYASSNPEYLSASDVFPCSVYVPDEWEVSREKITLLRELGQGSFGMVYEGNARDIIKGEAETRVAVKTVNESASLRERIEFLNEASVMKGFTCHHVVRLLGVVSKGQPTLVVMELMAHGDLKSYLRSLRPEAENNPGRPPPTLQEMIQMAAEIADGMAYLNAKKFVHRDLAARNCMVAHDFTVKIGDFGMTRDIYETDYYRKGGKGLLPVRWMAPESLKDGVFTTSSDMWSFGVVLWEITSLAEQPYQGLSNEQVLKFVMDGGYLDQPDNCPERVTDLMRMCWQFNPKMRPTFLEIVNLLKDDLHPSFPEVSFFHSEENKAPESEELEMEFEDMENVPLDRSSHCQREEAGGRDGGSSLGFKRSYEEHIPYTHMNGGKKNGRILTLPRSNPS
MARK2 (human), sequence (Q7KZI7 whole entry, looked up): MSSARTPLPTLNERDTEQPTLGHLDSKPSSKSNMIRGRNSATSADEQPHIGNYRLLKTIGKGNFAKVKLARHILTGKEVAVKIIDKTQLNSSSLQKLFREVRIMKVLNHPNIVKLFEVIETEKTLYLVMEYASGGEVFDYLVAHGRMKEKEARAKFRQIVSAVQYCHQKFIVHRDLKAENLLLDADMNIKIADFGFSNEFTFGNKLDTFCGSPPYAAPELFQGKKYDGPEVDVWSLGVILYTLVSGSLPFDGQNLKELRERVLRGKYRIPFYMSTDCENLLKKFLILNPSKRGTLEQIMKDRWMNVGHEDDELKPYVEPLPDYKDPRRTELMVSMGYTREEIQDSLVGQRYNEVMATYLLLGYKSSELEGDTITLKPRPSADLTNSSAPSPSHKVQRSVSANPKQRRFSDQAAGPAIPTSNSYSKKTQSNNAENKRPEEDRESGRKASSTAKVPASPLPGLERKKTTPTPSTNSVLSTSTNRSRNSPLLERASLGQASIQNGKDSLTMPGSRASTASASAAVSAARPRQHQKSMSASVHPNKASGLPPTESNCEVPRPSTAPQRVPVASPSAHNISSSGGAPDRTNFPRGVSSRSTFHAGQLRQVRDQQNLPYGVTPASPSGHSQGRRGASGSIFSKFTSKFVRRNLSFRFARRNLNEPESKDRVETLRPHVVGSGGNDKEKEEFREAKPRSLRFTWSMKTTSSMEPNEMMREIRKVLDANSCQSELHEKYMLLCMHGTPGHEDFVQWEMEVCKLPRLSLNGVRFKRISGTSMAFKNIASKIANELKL

Row | SMILES | inhibition (MAPK9 (human)) [%] | inhibition (RPS6KA3 KD1 KD2 (human)) [%] | inhibition (MARK2 (human)) [%] | inhibition (MAP3K5 (human)) [%] | inhibition (IKBKE (human)) [%] | inhibition (RPS6KA5 KD1 KD2 (human)) [%] | inhibition (MAP3K1 (human)) [%] | inhibition (SYK (human)) [%] | inhibition (MAPK10 (human)) [%] | inhibition (TAOK1 (human)) [%] | inhibition (DYRK1A (human)) [%] | inhibition (BRSK1 (human)) [%] | inhibition (INSR (human)) [%] | inhibition (MAPK15 (human)) [%] | inhibition (PKN2 (human)) [%] | inhibition (EPHB2 (human)) [%] | inhibition (FGFR1 (human)) [%] | inhibition (MARK3 (human)) [%] | inhibition (MAP3K9 (human)) [%] | inhibition (ZAP70 (human)) [%] | also measured
1 | O=c1c(NC(=S)NCc2ccccc2)cnc2[nH]ccn12 | 7 | 20 | 0 | 0 | 0 | 0 | 0 | 12 | 0 | 0 | 5 | 2 | 0 | 3 | 0 | 3 | 6 | 9 | 0 | 0 | inhibition (NTRK1 (human)): 0%; inhibition (MAP2K6 (human)): 0%; inhibition (HIPK3 (human)): 0%; inhibition (LCK (mouse)): 0%; inhibition (MAPK3 (human)): 7%; inhibition (INSRR (human)): 0%; inhibition (MAPK1 (human)): 0%; inhibition (NUAK1 (human)): 0%; inhibition (BTK (human)): 16%; inhibition (PRKACA (human)): 0%; inhibition (HIPK2 (human)): 0%; inhibition (DAPK1 (human)): 0%; inhibition (EPHA2 (human)): 12%; inhibition (PRKCZ (human)): 0%; inhibition (EPHB1 (human)): 3%
2 | Nc1nc2cnc(-c3ccccc3)cn2n1 | 26 | 51 | 2 | 32 | 39 | 19 | 34 | 84 | 47 | 37 | 77 | 27 | 97 | 74 | 44 | 30 | 79 | 59 | 81 | 0 | inhibition (NTRK1 (human)): 61%; inhibition (MAP2K6 (human)): 3%; inhibition (HIPK3 (human)): 16%; inhibition (LCK (mouse)): 75%; inhibition (MAPK3 (human)): 31%; inhibition (INSRR (human)): 71%; inhibition (MAPK1 (human)): 47%; inhibition (NUAK1 (human)): 73%; inhibition (BTK (human)): 67%; inhibition (PRKACA (human)): 9%; inhibition (HIPK2 (human)): 57%; inhibition (DAPK1 (human)): 31%; inhibition (EPHA2 (human)): 28%; inhibition (PRKCZ (human)): 13%; inhibition (EPHB1 (human)): 48%
3 | CC(C)(C)Nc1c(C2CC2)nc2[nH]cnn12 | 3 | 13 | 0 | 4 | 0 | 0 | 0 | 7 | 1 | 0 | 0 | 0 | 0 | 60 | 17 | 0 | 65 | 0 | 0 | 1 | inhibition (NTRK1 (human)): 27%; inhibition (MAP2K6 (human)): 3%; inhibition (HIPK3 (human)): 0%; inhibition (LCK (mouse)): 0%; inhibition (MAPK3 (human)): 0%; inhibition (INSRR (human)): 0%; inhibition (MAPK1 (human)): 0%; inhibition (NUAK1 (human)): 24%; inhibition (BTK (human)): 6%; inhibition (PRKACA (human)): 0% and 5%; inhibition (HIPK2 (human)): 22%; inhibition (DAPK1 (human)): 0%; inhibition (EPHA2 (human)): 0%; inhibition (PRKCZ (human)): 0%; inhibition (EPHB1 (human)): 0%
